Data published in PubChem BioAssay (NCI).
Several values for one entry are separate records, joined by “and”; a condition that tells them apart may be missing. Identical values can stand only once.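 48-hour exposure; five concentrations; linearly interpolated endpoints. GI50: concentration for 50% inhibition of growth. TGI: concentration producing complete growth inhibition.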

Legend:
Experiment in all cases: inhibition of tumour cell growth, NCI panel, 48 h
[1] = test system: HL-60(TB) leukemia
[2] = test system: HT29 colon
[3] = test system: CCRF-CEM leukemia
[4] = test system: HOP-62 NSCLC
[5] = test system: PC-3 prostate
[6] = test system: OVCAR-8 ovarian
[7] = test system: TK-10 renal
[8] = test system: SNB-75 CNS
[9] = test system: SN12C renal
[10] = test system: EKVX NSCLC
[11] = test system: 786-0 renal
[12] = test system: T-47D breast
[13] = test system: SF-539 CNS
[14] = test system: RXF 393 renal
[15] = test system: HS 578T breast
[16] = test system: MDA-MB-435
[17] = test system: HCT-116 colon
[18] = test system: UACC-257 melanoma
[19] = test system: M14 melanoma
[20] = test system: IGROV1 ovarian
[21] = test system: HCC-2998 colon
[22] = test system: HOP-92 NSCLC
[23] = test system: A549 NSCLC
[24] = test system: OVCAR-5 ovarian
[25] = test system: SK-OV-3 ovarian
[26] = test system: NCI-H460 lung
[27] = test system: NCI-H23 lung
[28] = test system: MDA-MB-231 breast
[29] = test system: SNB-19 CNS
[30] = test system: K-562 leukemia
[31] = test system: SF-295 CNS
[32] = test system: NCI-H522 lung
[33] = test system: OVCAR-4 ovarian
[34] = test system: BT-549 breast
[35] = test system: NCI-H226 lung
[36] = test system: MALME-3M melanoma
[37] = test system: UO-31 renal
[38] = test system: SF-268 CNS
[39] = test system: A498 renal
[40] = test system: NCI/ADR-RES ovarian
[41] = test system: SK-MEL-5 melanoma
[42] = test system: KM12 colon
[43] = test system: SR leukemia
[44] = test system: COLO 205 colon
[45] = test system: SW-620 colon
[46] = test system: UACC-62 melanoma
[47] = test system: OVCAR-3 ovarian
[48] = test system: MCF7 breast
[49] = test system: SK-MEL-28 melanoma

**Q.** Which results are given for `C=Cc1cc(OC)c2c(c1)c(=O)oc1c2cc(OC)c2c(O)ccc(C3OC(C(C)O)C(O)C3O)c21` (stereo not drawn)?
**A.** GI50 [1]: 2.16 nM; TGI [1]: 19.7 nM; GI50 [2]: 6.66 nM; TGI [2]: > 1000 nM; GI50 [3]: 2.45 nM; TGI [3]: 31.2 nM; GI50 [4]: 9.96 nM; TGI [4]: 59.5 nM; GI50 [5]: 10.5 nM; TGI [5]: 153 nM; GI50 [6]: 11.4 nM; TGI [6]: 212 nM; GI50 [7]: 22.3 nM; TGI [7]: 318 nM; GI50 [8]: 15.7 nM; TGI [8]: 51.5 nM; GI50 [9]: 22.9 nM; TGI [9]: 172 nM; GI50 [10]: 4.03 nM; TGI [10]: 33.6 nM; GI50 [11]: 3.36 nM; TGI [11]: 19.2 nM; GI50 [12]: 8.12 nM; TGI [12]: 80 nM; GI50 [13]: 14.6 nM; TGI [13]: 52.7 nM; GI50 [14]: 1.81 nM; TGI [14]: 3.84 nM; GI50 [15]: 19.1 nM; TGI [15]: 61.7 nM; GI50 [16]: 14.5 nM; TGI [16]: 33.7 nM; GI50 [17]: 2.98 nM; TGI [17]: 205 nM; GI50 [18]: 26.9 nM; TGI [18]: 80.5 nM; GI50 [19]: 11 nM; TGI [19]: 30.2 nM; GI50 [20]: 3.4 nM; TGI [20]: 104 nM; GI50 [21]: 13 nM; TGI [21]: 42.2 nM; GI50 [22]: 12.6 nM; TGI [22]: 300 nM; GI50 [23]: 14.6 nM; TGI [23]: 414 nM; GI50 [24]: 3.09 nM; TGI [24]: 96.9 nM; GI50 [25]: 16.5 nM; TGI [25]: 718 nM; GI50 [26]: 5.73 nM; TGI [26]: 166 nM; GI50 [27]: 0.928 nM; TGI [27]: 15.1 nM; GI50 [28]: 43.8 nM; TGI [28]: > 1000 nM; GI50 [29]: 28 nM; TGI [29]: 246 nM; GI50 [30]: 3.55 nM; TGI [30]: 126 nM; GI50 [31]: 3.66 nM; TGI [31]: 43.1 nM; GI50 [32]: 4.75 nM; TGI [32]: 30 nM; GI50 [33]: 53 nM; TGI [33]: 703 nM; GI50 [34]: 7.69 nM; TGI [34]: 39.1 nM; GI50 [35]: 23 nM; TGI [35]: 99 nM; GI50 [36]: 10.7 nM; TGI [36]: 36.6 nM; GI50 [37]: 2.62 nM; TGI [37]: 39.9 nM; GI50 [38]: 4.56 nM; TGI [38]: 117 nM; GI50 [39]: 1.26 nM; TGI [39]: 4.68 nM; GI50 [40]: 12 nM; TGI [40]: 271 nM; GI50 [41]: 7.75 nM; TGI [41]: 55.5 nM; GI50 [42]: 6.74 nM; TGI [42]: 49.9 nM; GI50 [43]: 0.0483 nM and 0.209 nM; TGI [43]: 4.06 nM; GI50 [44]: 11.3 nM; TGI [44]: 102 nM; GI50 [45]: 11.7 nM; TGI [45]: 84 nM; GI50 [46]: 11.2 nM; TGI [46]: 29.6 nM; GI50 [47]: 15.5 nM; TGI [47]: 42.3 nM; GI50 [48]: 0.944 nM; TGI [48]: 321 nM; GI50 [49]: 22.5 nM; TGI [49]: 52.5 nM
